From the supplement of paper PMC8149375

Columns and labels:
Settings in all cases: treatment: drug alone; 5 days
769-P [1] = assay: GI50, drug alone; higher = less potent
Protocol: (§1)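 Primary HTS: 8 RCC cell lines treated with 8 doses (up to 10 uM) of each library drug alone for 5 days; viability read by CellTiter-Glo and normalised to DMSO. GI50 was fitted with XLfit (4-parameter), AUC is the area under the dose-response curve, and minimum viability is the lowest fraction of DMSO viability across doses.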

786-O [2] = assay: GI50, drug alone; higher = less potent
Protocol: as §1

A498 [3] = assay: GI50, drug alone; higher = less potent
Protocol: as §1

ACHN [4] = assay: GI50, drug alone; higher = less potent
Protocol: as §1

CAKI-1 [5] = assay: GI50, drug alone; higher = less potent
Protocol: as §1

SN12C [6] = assay: GI50, drug alone; higher = less potent
Protocol: as §1

TK-10 [7] = assay: GI50, drug alone; higher = less potent
Protocol: as §1

UO-31 [8] = assay: GI50, drug alone; higher = less potent
Protocol: as §1

769-P [9] = assay: minimum viability across doses, drug alone, relative to DMSO (fraction); higher = less growth inhibition
Protocol: as §1

786-O [10] = assay: as above
Protocol: as §1

A498 [11] = assay: as above
Protocol: as §1

ACHN [12] = assay: as above
Protocol: as §1

CAKI-1 [13] = assay: as above
Protocol: as §1

SN12C [14] = assay: as above
Protocol: as §1

TK-10 [15] = assay: as above
Protocol: as §1

UO-31 [16] = assay: as above
Protocol: as §1

769-P [17] = assay: AUC of dose-response viability curve, drug alone (arbitrary (AUC of normalised viability)); higher = less growth inhibition
Protocol: as §1

786-O [18] = assay: as above
Protocol: as §1

A498 [19] = assay: as above
Protocol: as §1

ACHN [20] = assay: as above
Protocol: as §1

CAKI-1 [21] = assay: as above
Protocol: as §1

SN12C [22] = assay: as above
Protocol: as §1

TK-10 [23] = assay: as above
Protocol: as §1

UO-31 [24] = assay: as above
Protocol: as §1

| SMILES | GI50, drug alone (786-O [2]) [nM] | GI50, drug alone (ACHN [4]) [nM] | GI50, drug alone (769-P [1]) [nM] | GI50, drug alone (A498 [3]) [nM] | GI50, drug alone (CAKI-1 [5]) [nM] | GI50, drug alone (SN12C [6]) [nM] | GI50, drug alone (TK-10 [7]) [nM] | GI50, drug alone (UO-31 [8]) [nM] | minimum viability across doses (769-P [9]) | minimum viability across doses (786-O [10]) | minimum viability across doses (A498 [11]) | minimum viability across doses (ACHN [12]) | minimum viability across doses (CAKI-1 [13]) | minimum viability across doses (SN12C [14]) | minimum viability across doses (TK-10 [15]) | minimum viability across doses (UO-31 [16]) | AUC of dose-response viability curve (769-P [17]) | AUC of dose-response viability curve (786-O [18]) | AUC of dose-response viability curve (A498 [19]) | AUC of dose-response viability curve (ACHN [20]) | AUC of dose-response viability curve (CAKI-1 [21]) | AUC of dose-response viability curve (SN12C [22]) | AUC of dose-response viability curve (TK-10 [23]) | AUC of dose-response viability curve (UO-31 [24]) |
| --- | --- | --- | --- | --- | --- | --- | --- | --- | --- | --- | --- | --- | --- | --- | --- | --- | --- | --- | --- | --- | --- | --- | --- | --- |
| Cc1cc2c(C(C)C)c(O)c(O)c(C=O)c2c(O)c1-c1c(C)cc2c(C(C)C)c(O)c(O)c(C=O)c2c1O [AT101] | > 10000 | 5950 | > 10000 | > 10000 | 6050 | > 10000 | > 10000 | > 10000 | 0.779 | 0.212 | 0.836 | 0.2 | 0.121 | 0.741 | 0.542 | 0.778 | 3.66 | 1.66 | 3.74 | 3.02 | 3.35 | 3.2 | 2.36 | 3.8 |
| O=C(NC1CCNCC1)c1n[nH]cc1NC(=O)c1c(Cl)cccc1Cl [AT7519] | 375 | 946 | 1910 | 455 | 900 | 431 | 1040 | 415 | 0.0237 | 0.00447 | 0.00986 | 0.00881 | 0.0613 | 0.0108 | 0.182 | 0.00638 | 2.78 | 2.23 | 2.45 | 2.35 | 2.23 | 2.14 | 2.32 | 3.04 |
| Clc1ccc(C2(c3ccc(-c4cn[nH]c4)cc3)CCNCC2)cc1 [AT7867] | 1110 | 2570 | 6560 | 7630 | 4090 | 5460 | 3730 | 249 | 0.338 | 0.00712 | 0.263 | 0.0705 | 0.155 | 0.212 | 0.0799 | 0.00617 | 3.02 | 2.05 | 3.49 | 2.89 | 2.8 | 3.13 | 2.84 | 2.21 |
| O=C(Nc1c[nH]nc1-c1nc2cc(CN3CCOCC3)ccc2[nH]1)NC1CC1 [AT9283] | 100 | 344 | 241 | 777 | 414 | 1100 | 456 | 250 | 0.0255 | 0.00681 | 0.0125 | 0.0159 | 0.0418 | 0.00789 | 0.0596 | 0.00945 | 1.97 | 1.58 | 2.74 | 1.86 | 2.22 | 2.63 | 2.1 | 2.05 |
| Cc1ccc(NC(=O)c2cccc(C(C)(C)C#N)c2)cc1Nc1ccc2ncn(C)c(=O)c2c1 [AZ628] | > 10000 | 2710 | > 10000 | > 10000 | 4380 | > 10000 | 4670 | 4500 | 0.706 | 0.719 | 0.928 | 0.276 | 0.239 | 0.572 | 0.425 | 0.101 | 3.42 | 3.21 | 3.97 | 2.84 | 3.16 | 3.3 | 2.48 | 3.37 |
| Cc1cc(Nc2nc(N[C@@H](C)c3ccc(F)cc3)c(C#N)cc2F)n[nH]1 [AZ 960] | 259 | 1070 | 1230 | 3300 | 628 | 1680 | 1840 | 789 | 0.0819 | 0.00178 | 0.391 | 0.129 | 0.0231 | 0.252 | 0.133 | 0.00541 | 2.51 | 1.57 | 2.86 | 2.48 | 2.15 | 2.5 | 2.44 | 2.52 |

Further lines, with some results ahead:

| GI50, drug alone (786-O [2]) [nM] | GI50, drug alone (ACHN [4]) [nM] | SMILES | GI50, drug alone (769-P [1]) [nM] | GI50, drug alone (A498 [3]) [nM] | GI50, drug alone (CAKI-1 [5]) [nM] | GI50, drug alone (SN12C [6]) [nM] | GI50, drug alone (TK-10 [7]) [nM] | GI50, drug alone (UO-31 [8]) [nM] | minimum viability across doses (769-P [9]) | minimum viability across doses (786-O [10]) | minimum viability across doses (A498 [11]) | minimum viability across doses (ACHN [12]) | minimum viability across doses (CAKI-1 [13]) | minimum viability across doses (SN12C [14]) | minimum viability across doses (TK-10 [15]) | minimum viability across doses (UO-31 [16]) | AUC of dose-response viability curve (769-P [17]) | AUC of dose-response viability curve (786-O [18]) | AUC of dose-response viability curve (A498 [19]) | AUC of dose-response viability curve (ACHN [20]) | AUC of dose-response viability curve (CAKI-1 [21]) | AUC of dose-response viability curve (SN12C [22]) | AUC of dose-response viability curve (TK-10 [23]) | AUC of dose-response viability curve (UO-31 [24]) |
| --- | --- | --- | --- | --- | --- | --- | --- | --- | --- | --- | --- | --- | --- | --- | --- | --- | --- | --- | --- | --- | --- | --- | --- | --- |
| 23.6 | 120 | CNC(=O)c1cccc(-c2ccc3c(N4CCOC[C@@H]4C)nc(N4CCOC[C@@H]4C)nc3n2)c1 [AZD2014] | 573 | 936 | 246 | 364 | 145 | 135 | 0.0959 | 0.0673 | 0.229 | 0.0767 | 0.0604 | 0.177 | 0.108 | 0.0166 | 2.29 | 1.18 | 2.91 | 1.61 | 1.86 | 2.12 | 1.67 | 1.88 |
| 7220 | 2380 | COc1cc(CCc2cc(NC(=O)c3ccc(N4C[C@@H](C)N[C@@H](C)C4)cc3)n[nH]2)cc(OC)c1 [AZD4547] | > 10000 | > 10000 | 1600 | 5180 | 9570 | 9970 | 0.9 | 0.202 | 0.877 | 0.165 | 0.222 | 0.256 | 0.51 | 0.68 | 3.57 | 3.17 | 3.96 | 2.69 | 2.59 | 3.1 | 3.11 | 5.09 |
| 186 | 654 | Cc1ncc(-c2ccnc(Nc3ccc(S(C)(=O)=O)cc3)n2)n1C(C)C [AZD5438] | 910 | 1230 | 1640 | 1480 | 759 | 258 | 0.0207 | 0.00317 | 0.00858 | 0.0146 | 0.131 | 0.0183 | 0.142 | 0.00721 | 2.6 | 1.66 | 2.44 | 2.39 | 2.97 | 2.45 | 2.49 | 2.19 |
